These results are taken from publication PMC4303209, “A novel phosphatidylinositol 3-kinase (PI3K) inhibitor directs a potent FOXO-dependent, p53-independent cell cycle arrest phenotype characterized by the differential induction of a subset of FOXO-regulated genes” (Breast Cancer Research : BCR, 2014).

The structures appear in SMILES notation. “Also recorded” adds a separate entry of the source.

For one data set, the system named is nuclear FOXO3a. Description: Immunoblot of nuclear fractions for FOXO3a in MCF-7 or U2OS cells. Format: cell-based, human. Conditions: nuclear fractions of treated MCF-7 or U2OS cells. The method, then:
(§1) Figure 1 Cellular response to ETP-45658. […] Seventy-two hours post treatment, MTT assays were conducted. (B) Dose- and time-dependent analysis of Ser473 phosphorylation of AKT phosphorylation by 100nM ETP-45658 or PI-103 treatment. MCF-7 or U2OS cells were treated with the indicated concentrations (μM) of ETP-45658 (or PI-103) for four hours, then total protein was extracted and immunoblotted. For nuclear FOXO analysis, nuclear protein fractions were collected four hours post ETP-45658 (or PI-103) treatment. Nuclear FOXO3a levels were measure by immunoblotting. Nuclear fractions were confirmed by probing for lamin A/C. (C) FACS profile of MCF-7 or U2OS following 100 nM ETP-45658 treatment (20,000 events scored, N = 5). (D) Heat map for the top 100 differentially expressed genes based on hierarchical clustering using Euclidean distance metric. Red and green indicate genes that induced or repressed respectively by ETP-45658 or PI-103. Black indicates no change (N = 4). […] Numbers indicate number of genes that are exclusive to that particular category.
For orientation: Immunoblotting shows a protein as a band on a membrane.

Data set [1] concerns FOXO3a promoter recruitment in MCF-7 or MDA-MB231 cells. Description: Chromatin immunoprecipitation (ChIP) for FOXO3a promoter recruitment. Format: cell-based, human. Conditions: by six hours post treatment. The protocol:
Chromatin immunoprecipitation (ChIP) assays were performed essentially the same as described in [28]. Briefly, cells were fixed with 1% formaldehyde, and then whole-cell lysates were prepared. Protein lysate was subjected to ChIP with the indicated antibodies, followed by DNA purification (Invitrogen, Waltham, MA, USA). ChIP-enriched DNA was analyzed by PCR with the indicated primer sets (Table S1 in Additional file 3) purchased from NZYTech (Lisbon, Portugal). Visualization of bands was achieved using a BioRad Chemidoc XRS+ (BioRad) and quantified using the Image Lab software (BioRad).
Figure 5 Chromatin immunoprecipitation analysis for FOXO3a promoter recruitment. (A) Chromatin immunoprecipitation (ChIP) assays for FOXO3a following ETP-45658 treatment at three or six hours of MCF-7 or MDA-MB231 cells for […], CDKN1B, BCL2L11or FASLG. IgG indicates no specific antibody used and for simplicity, only inputs from our MCF-7 samples are shown. (B and C) Quantification of our ChIP gels normalised to inputs from each respective cell line. Error bars indicate standard deviation, N = 3.

For the next data set, the system named is total p53. Description: Immunoblot of total p53.
For another data set, the system named is mutated BRAF. Kind of data set: Protein kinase panel screen (ProQinase), mutated BRAF. It counts as biochemical. Conditions: 10 μM. The protocol:
The protein kinase assays depicted in Figure S1 in Additional file 1 and Table S2 in Additional file 2 were performed at ProQinase, GmbH [18].
Our first objective was to analyse the biological activity of ETP-45658 including the physical and chemical properties of this compound compared to the reference pan-class I PI3K and mTOR inhibitor PI-103 [9]. We characterised the structure of each compound (Figure S1A in Additional file 1) and conducted the in silico analysis of each compound to measure their physiochemical properties (Figure S1B in Additional file 1). We determined the molecular polar surface area (PSA) of each compound, the partition coefficient, the distribution coefficient, compound solubility and the number of hydrogen donors and acceptors. […] Each indicated protein kinase activity was assayed following 10 μM treatment with either compound.
Supplementary file 13058_2014_482_MOESM1_ESM.jpeg: Additional file 1: Figure S1.: Comparative analysis of ETP-45658 and PI-103. (A) Chemical structure of ETP-45658 and PI-103. (B) Physiochemical properties of ETP-45658 and PI-103, including molecular polar surface area (PSA), partition coefficient (LogP), ACD clogD and solubility at two different pH values including Lipinsky’s Rule of Five (RoF) analysis. […] The kinase activity of PI3K was measured by using the commercial PI3-kinase HTRF™ assay mTOR activity by LanthaScreen™. […]

On the set-up of data set [2]: method as in PMID 17575152. To be noted: cited from earlier work.
For a further data set, the system named is MCF-7. Description: Proliferation assay (MTT, 72 hours). Format: cell-based. Conditions: Homo sapiens, MCF7. The method, then:
(§2) Cells were seeded in 96-well microtitre plates. Compounds (in DMSO) were added to each well (at a final concentration of 10 μM). The medium was removed from the cells and replaced with 0.2 ml of medium containing either compound for 72 hours and then processed for MTT assay (Promega Corp, Madison, WI, USA) N = 6.
as §1

A further data set deals with HCT-116. Description: Proliferation assay (MTT, 72 hours). To be noted: Homo sapiens. It counts as cell-based. The method, then:
as §2, §1

Another data set has as its system MV4.11. Description: Proliferation assay (MTT, 72 hours). Format: cell-based. To be noted: Homo sapiens. The method, then: as §2, §1
A further data set has as its system NCIH460. Kind of data set: Proliferation assay (MTT, 72 hours). Format: cell-based. To be noted: Homo sapiens, NCI-H460. The protocol:
as §2, §1

For another data set, the system named is T47D. Kind of data set: Proliferation assay (MTT, 72 hours). Format: cell-based. To be noted: Homo sapiens. The method, then: as §2, §1
A further data set concerns PC3. Kind of data set: Proliferation assay (MTT, 72 hours). Format: cell-based. Conditions: Homo sapiens, PC-3. The method, then: as §2, §1
The test system of data set [3] is PC3, MCF7, MV4.11, T47D, HCT-116 and NCIH46 cells. Kind of data set: cells. It counts as cell-based. Conditions: Homo sapiens; range over all tested cell lines; MTT 72 hours; read-out: EC50 value for the inhibition of proliferation, inhibitory range.
Text: We determined the EC50 value for the inhibition of proliferation in each of the following cell lines, PC3, MCF7, MV4.11, T47D, HCT-116 and NCIH46 cells.

Experimental for total p53: Sub-confluent cells were incubated under the conditions indicated in each figure and washed twice with phosphate-buffered saline (PBS) prior to lysis. RIPA lysis buffer was added (50 mM TrisHCl, 150 mM NaCl, 1% NP-40, 2 mM Na3VO4, 100 mM NaF, 20 mM Na4P2O7 and 1x protease inhibitor cocktail (Roche Molecular Biochemicals, Indianapolis, IN, USA). The membranes were incubated overnight for total AKT, phospho-serine-473-AKT, total p53 (DO1) (Santa Cruz Biotechnology, Dallas, TX, USA), phospho-threonine 32-FOXO3a (Merck Millipore, Darmstadt, Germany) and α-tubulin (Sigma-Aldrich). Secondary antibodies used were anti-mouse, goat or rabbit immunoglobulin G (IgG)-horseradish peroxidase (HRP) (Santa Cruz Biotechnology) as appropriate. Visualisation of bands was achieved using ChemiDoc imaging system (BioRad Laboratories Inc, Hercules, CA, USA) after membrane treatment with Ecl + (Amersham, Little Chalfont, UK).

Take `Cn1ncc2c(N3CCOCC3)nc(-c3cccc(O)c3)nc21` [ETP-45658]: the “nuclear FOXO3a level” value in the data set with nuclear FOXO3a is recorded as “significant accumulation”. Also, the “FOXO3a promoter recruitment (CCNG2, CDKN1B, BCL2L11, FASLG)” value in [1] is given as “statistically significant FOXO3a promoter recruitment”. In addition, the “accumulation of total p53” value in the data set on total p53 is on record as “little to no p53 accumulation; also recorded: neither ETP-45658 (nor PI-103) triggered an accumulation”. For the same compound, the average percent inhibition in the data set on mutated BRAF came out at 38%.
With `Oc1cccc(-c2nc(N3CCOCC3)c3oc4ncccc4c3n2)c1` [PI-103], in [2], the aqueous solubility result is “limited aqueous solubility”. For the same compound, the GI50 (usually the concentration at which growth is held to half of that of the control) with MCF-7 was found to be 500 nM; in the data set on HCT-116, 1670 nM; with MV4.11, 50 nM; in the data set on NCIH460, 1310 nM; in the data set with T47D, 340 nM; with PC3, 50 nM. Also, the “accumulation of total p53” value in the data set on total p53 is listed as “neither ETP-45658 (nor PI-103) triggered an accumulation”. Moreover, in data set [3], the EC50 was in the range of 49 to 1760 nM. Moreover, in the data set with mutated BRAF, the average percent inhibition stood at 57.7%.
